From patent US10189841B2, “Purinones as ubiquitin-specific protease 1 inhibitors” (Forma Therapeutics, Inc., priority 2015, dated 2019)

target: USP1 (construct USP1 (I-785, GG670, 671AA)/UAF1 (I-677)-Flag) (Homo sapiens (Human), UniProt O94782, G670A/G671A); assay: Ubiquitin-Rhodamine 110 assay for USP1 activity; type: biochemical; details: USP1/UAF1 25 pM, Ub-Rh110 25 nM, 30 min preincubation
Summary of the method: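 Ub-Rh110 (25 nM, ≪Km) cleavage read at ex 485/em 535 in Tris pH 8.0, CaCl2, GSH, Prionex, Triton X-100. The screen used 10 µM compound, 100 pM USP1/UAF1 and 45 min at RT.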

Chain of USP1 (construct USP1 (I-785, GG670, 671AA)/UAF1 (I-677)-Flag) (O94782 whole entry G670A/G671A): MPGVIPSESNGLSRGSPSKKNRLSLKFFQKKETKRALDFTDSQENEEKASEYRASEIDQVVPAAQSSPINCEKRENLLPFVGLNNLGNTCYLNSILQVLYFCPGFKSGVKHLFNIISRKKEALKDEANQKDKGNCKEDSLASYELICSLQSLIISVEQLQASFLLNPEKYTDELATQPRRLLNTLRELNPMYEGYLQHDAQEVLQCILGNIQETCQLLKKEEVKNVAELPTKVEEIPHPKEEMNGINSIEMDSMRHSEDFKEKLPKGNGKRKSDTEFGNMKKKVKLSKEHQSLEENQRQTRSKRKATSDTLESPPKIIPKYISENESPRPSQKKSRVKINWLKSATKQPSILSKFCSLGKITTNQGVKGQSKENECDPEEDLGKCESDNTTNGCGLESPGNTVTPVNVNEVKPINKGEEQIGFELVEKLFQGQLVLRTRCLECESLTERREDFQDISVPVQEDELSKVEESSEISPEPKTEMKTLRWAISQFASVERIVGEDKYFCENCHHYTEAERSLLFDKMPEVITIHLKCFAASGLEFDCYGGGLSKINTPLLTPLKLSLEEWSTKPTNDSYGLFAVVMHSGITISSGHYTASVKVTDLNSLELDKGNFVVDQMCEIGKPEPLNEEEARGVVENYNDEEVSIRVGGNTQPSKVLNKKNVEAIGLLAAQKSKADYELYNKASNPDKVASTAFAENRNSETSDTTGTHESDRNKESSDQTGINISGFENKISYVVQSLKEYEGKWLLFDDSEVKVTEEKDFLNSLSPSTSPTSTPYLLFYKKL
Chain of USP1 (construct USP1 (I-785, GG670, 671AA)/UAF1 (I-677)-Flag) (Q8TAF3 whole entry partner): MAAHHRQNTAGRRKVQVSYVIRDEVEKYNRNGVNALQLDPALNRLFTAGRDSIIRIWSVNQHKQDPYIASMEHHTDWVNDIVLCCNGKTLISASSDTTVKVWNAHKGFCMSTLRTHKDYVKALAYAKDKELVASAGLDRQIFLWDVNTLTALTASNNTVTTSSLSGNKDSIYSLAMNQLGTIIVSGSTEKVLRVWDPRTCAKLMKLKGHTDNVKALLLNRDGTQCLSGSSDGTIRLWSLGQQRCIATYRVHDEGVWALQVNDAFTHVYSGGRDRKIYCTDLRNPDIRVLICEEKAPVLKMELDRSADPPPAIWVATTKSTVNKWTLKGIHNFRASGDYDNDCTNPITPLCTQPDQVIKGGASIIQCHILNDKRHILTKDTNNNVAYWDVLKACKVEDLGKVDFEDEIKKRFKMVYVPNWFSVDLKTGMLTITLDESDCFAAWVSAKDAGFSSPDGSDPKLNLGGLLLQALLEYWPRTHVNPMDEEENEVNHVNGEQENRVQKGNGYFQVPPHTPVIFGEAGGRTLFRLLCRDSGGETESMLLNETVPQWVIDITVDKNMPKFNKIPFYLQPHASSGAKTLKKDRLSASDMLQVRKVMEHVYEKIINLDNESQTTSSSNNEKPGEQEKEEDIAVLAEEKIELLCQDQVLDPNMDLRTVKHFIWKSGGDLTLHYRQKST

SMILES | IC50 [nM]
CC(C)c1ccccc1-c1ncc2[nH]c(=O)n(Cc3ccc(-c4ncn(C)c4CO)cc3)c2n1 [Compound I-297, 9-(4-(5-(hydroxymethyl)-1-methyl-1H-imidazol-4-yl)benzyl)-2-(2-isopropylphenyl)-7,9-dihydro-8H-purin-8-one] | 200 to 2000
CC(C)c1ccccc1-c1ncc2[nH]c(=O)n(Cc3ccc(-c4cnnn4C)cc3)c2n1 [Compound I-298, 2-(2-isopropylphenyl)-9-(4-(1-methyl-1H-1,2,3-triazol-5-yl)benzyl)-7,9-dihydro-8H-purin-8-one] | > 2000
CC(C)c1ccccc1-c1ncc2[nH]c(=O)n(Cc3ccc(-c4ccnn4C(C)C)cc3)c2n1 [Compound I-299, 9-(4-(1-isopropyl-1H-pyrazol-5-yl)benzyl)-2-(2-isopropylphenyl)-7,9-dihydro-8H-purin-8-one] | 50 to 200
Cc1scnc1-c1ccc(Cn2c(=O)[nH]c3cnc(-c4ccccc4C(C)C)nc32)cc1 [Compound I-300, 2-(2-isopropylphenyl)-9-(4-(5-methylthiazol-4-yl)benzyl)-7,9-dihydro-8H-purin-8-one] | < 50
Cc1nc(-c2ccc(Cn3c(=O)[nH]c4cnc(-c5ccccc5C(C)C)nc43)cc2)c(C)s1 [Compound I-301, 9-(4-(2,5-dimethylthiazol-4-yl)benzyl)-2-(2-isopropylphenyl)-7,9-dihydro-8H-purin-8-one] | < 50
CC(C)c1ccccc1-c1ncc2[nH]c(=O)n(Cc3ccc(-c4ncsc4CO)cc3)c2n1 [Compound I-302, 9-(4-(5-(hydroxymethyl)thiazol-4-yl)benzyl)-2-(2-isopropylphenyl)-7,9-dihydro-8H-purin-8-one] | < 50
Cc1scnc1-c1ccc(Cn2c(=O)n(C)c3cnc(-c4ccccc4C(C)C)nc32)cc1 [Compound I-303, 2-(2-isopropylphenyl)-7-methyl-9-(4-(5-methylthiazol-4-yl)benzyl)-7,9-dihydro-8H-purin-8-one] | < 50
Cc1nc(-c2ccc(Cn3c(=O)n(C)c4cnc(-c5ccccc5C(C)C)nc43)cc2)c(C)s1 [Compound I-304, 9-(4-(2,5-dimethylthiazol-4-yl)benzyl)-2-(2-isopropylphenyl)-7-methyl-7,9-dihydro-8H-purin-8-one] | < 50
CC(C)c1ccccc1-c1ncc2c(n1)n(Cc1ccc(-c3ncsc3CO)cc1)c(=O)n2C [Compound I-305, 9-(4-(5-(hydroxymethyl)thiazol-4-yl)benzyl)-2-(2-isopropylphenyl)-7-methyl-7,9-dihydro-8H-purin-8-one] | < 50
Cc1cn2ccnc2c(-c2ccc(Cn3c(=O)[nH]c4cnc(-c5ccccc5C(C)C)nc43)cc2)n1 [Compound I-306, 2-(2-isopropylphenyl)-9-(4-(6-methylimidazo[1,2-a]pyrazin-8-yl)benzyl)-7,9-dihydro-8H-purin-8-one] | < 50
Cc1cn(C)c(-c2ccc(Cn3c(=O)[nH]c4cnc(-c5cccc(F)c5C(C)C)nc43)cc2)n1 [Compound I-307, 9-(4-(1,4-dimethyl-1H-imidazol-2-yl)benzyl)-2-(3-fluoro-2-isopropylphenyl)-7,9-dihydro-8H-purin-8-one] | < 50
CC(C)c1c(F)cccc1-c1ncc2[nH]c(=O)n(Cc3ccc(-c4cn(C)cn4)cc3)c2n1 [Compound I-308, 2-(3-fluoro-2-isopropylphenyl)-9-(4-(1-methyl-1H-imidazol-4-yl)benzyl)-7,9-dihydro-8H-purin-8-one] | < 50
CC(C)c1ccccc1-c1ncc2[nH]c(=O)n([C@H](C)c3ccc(-c4nccn4C)cc3)c2n1 [Compound I-309, (R)-2-(2-isopropylphenyl)-9-(1-(4-(1-methyl-1H-imidazol-2-yl)phenyl)ethyl)-7,9-dihydro-8H-purin-8-one] | < 50
CC(C)c1ccccc1-c1ncc2[nH]c(=O)n([C@@H](C)c3ccc(-c4nccn4C)cc3)c2n1 [Compound I-310, (S)-2-(2-isopropylphenyl)-9-(1-(4-(1-methyl-1H-imidazol-2-yl)phenyl)ethyl)-7,9-dihydro-8H-purin-8-one] | < 50
CNc1ncccc1-c1ncc2[nH]c(=O)n(Cc3ccc(-c4nc(C(F)(F)F)cn4C)cc3)c2n1 [Compound I-311, 9-(4-(1-methyl-4-(trifluoromethyl)-1H-imidazol-2-yl)benzyl)-2-(2-(methylamino)pyridin-3-yl)-7,9-dihydro-8H-purin-8-one] | < 50
CCNc1ncccc1-c1ncc2[nH]c(=O)n(Cc3ccc(-c4nc(C(F)(F)F)cn4C)cc3)c2n1 [Compound I-312, 2-(2-(ethylamino)pyridin-3-yl)-9-(4-(1-methyl-4-(trifluoromethyl)-1H-imidazol-2-yl)benzyl)-7,9-dihydro-8H-purin-8-one] | < 50

SMILES | IC50 [nM]
CC(C)Nc1ncccc1-c1ncc2[nH]c(=O)n(Cc3ccc(-c4nc(C(F)(F)F)cn4C)cc3)c2n1 [Compound I-313, 2-(2-(isopropylamino)pyridin-3-yl)-9-(4-(1-methyl-4-(trifluoromethyl)-1H-imidazol-2-yl)benzyl)-7,9-dihydro-8H-purin-8-one] | < 50
Cn1cc(C(F)(F)F)nc1-c1ccc(Cn2c(=O)[nH]c3cnc(-c4cccnc4NC4CC4)nc32)cc1 [Compound I-314, 2-(2-(cyclopropylamino)pyridin-3-yl)-9-(4-(1-methyl-4-(trifluoromethyl)-1H-imidazol-2-yl)benzyl)-7,9-dihydro-8H-purin-8-one] | < 50
CCOCCNc1ncccc1-c1ncc2[nH]c(=O)n(Cc3ccc(-c4nc(C(F)(F)F)cn4C)cc3)c2n1 [Compound I-315, 2-(2-((2-ethoxyethyl)amino)pyridin-3-yl)-9-(4-(1-methyl-4-(trifluoromethyl)-1H-imidazol-2-yl)benzyl)-7,9-dihydro-8H-purin-8-one] | < 50
Cn1cc(C(F)(F)F)nc1-c1ccc(Cn2c(=O)[nH]c3cnc(-c4cccnc4NC4CCC4)nc32)cc1 [Compound I-316, 2-(2-(cyclobutylamino)pyridin-3-yl)-9-(4-(1-methyl-4-(trifluoromethyl)-1H-imidazol-2-yl)benzyl)-7,9-dihydro-8H-purin-8-one] | 50 to 200
COCC(C)Nc1ncccc1-c1ncc2[nH]c(=O)n(Cc3ccc(-c4nc(C(F)(F)F)cn4C)cc3)c2n1 (stereo not shown) [Compound I-317, 2-(2-((1-methoxypropan-2-yl)amino)pyridin-3-yl)-9-(4-(1-methyl-4-(trifluoromethyl)-1H-imidazol-2-yl)benzyl)-7,9-dihydro-8H-purin-8-one] | 50 to 200
CN(C)C(=O)CNc1ncccc1-c1ncc2[nH]c(=O)n(Cc3ccc(-c4nc(C(F)(F)F)cn4C)cc3)c2n1 [Compound I-318, N,N-dimethyl-2-((3-(9-(4-(1-methyl-4-(trifluoromethyl)-1H-imidazol-2-yl)benzyl)-8-oxo-8,9-dihydro-7H-purin-2-yl)pyridin-2-yl)amino)acetamide] | 200 to 2000
COC[C@@H](C)Nc1ncccc1-c1ncc2[nH]c(=O)n(Cc3ccc(-c4nc(C(F)(F)F)cn4C)cc3)c2n1 [Compound I-319, (R)-2-(2-((1-methoxypropan-2-yl)amino)pyridin-3-yl)-9-(4-(1-methyl-4-(trifluoromethyl)-1H-imidazol-2-yl)benzyl)-7,9-dihydro-8H-purin-8-one] | 200 to 2000
Cn1cc(C(F)(F)F)nc1-c1ccc(Cn2c(=O)[nH]c3cnc(-c4cccnc4NCC4CCCO4)nc32)cc1 (stereo not shown) [Compound I-320, 9-(4-(1-methyl-4-(trifluoromethyl)-1H-imidazol-2-yl)benzyl)-2-(2-(((tetrahydrofuran-2-yl)methyl)amino)pyridin-3-yl)-7,9-dihydro-8H-purin-8-one] | 50 to 200
Cn1cc(C(F)(F)F)nc1-c1ccc(Cn2c(=O)[nH]c3cnc(-c4cccnc4NC4CCOCC4)nc32)cc1 [Compound I-321, 9-(4-(1-methyl-4-(trifluoromethyl)-1H-imidazol-2-yl)benzyl)-2-(2-((tetrahydro-2H-pyran-4-yl)amino)pyridin-3-yl)-7,9-dihydro-8H-purin-8-one] | 200 to 2000
Cn1cc(C(F)(F)F)nc1-c1ccc(Cn2c(=O)[nH]c3cnc(-c4cccnc4N[C@H]4CCOC4)nc32)cc1 [Compound I-322, (S)-9-(4-(1-methyl-4-(trifluoromethyl)-1H-imidazol-2-yl)benzyl)-2-(2-((tetrahydrofuran-3-yl)amino)pyridin-3-yl)-7,9-dihydro-8H-purin-8-one] | 50 to 200
CN(C)c1ncccc1-c1ncc2[nH]c(=O)n(Cc3ccc(-c4nc(C(F)(F)F)cn4C)cc3)c2n1 [Compound I-323, 2-(2-(dimethylamino)pyridin-3-yl)-9-(4-(1-methyl-4-(trifluoromethyl)-1H-imidazol-2-yl)benzyl)-7,9-dihydro-8H-purin-8-one] | < 50
CCN(CC)c1ncccc1-c1ncc2[nH]c(=O)n(Cc3ccc(-c4nc(C(F)(F)F)cn4C)cc3)c2n1 [Compound I-324, 2-(2-(diethylamino)pyridin-3-yl)-9-(4-(1-methyl-4-(trifluoromethyl)-1H-imidazol-2-yl)benzyl)-7,9-dihydro-8H-purin-8-one] | < 50
Cn1cc(C(F)(F)F)nc1-c1ccc(Cn2c(=O)[nH]c3cnc(-c4cccnc4N4CCCC4)nc32)cc1 [Compound I-325, 9-(4-(1-methyl-4-(trifluoromethyl)-1H-imidazol-2-yl)benzyl)-2-(2-(pyrrolidin-1-yl)pyridin-3-yl)-7,9-dihydro-8H-purin-8-one] | < 50
Cn1cc(C(F)(F)F)nc1-c1ccc(Cn2c(=O)[nH]c3cnc(-c4cccnc4N4CCCCC4)nc32)cc1 [Compound I-326, 9-(4-(1-methyl-4-(trifluoromethyl)-1H-imidazol-2-yl)benzyl)-2-(2-(piperidin-1-yl)pyridin-3-yl)-7,9-dihydro-8H-purin-8-one] | < 50
COCCN(C)c1ncccc1-c1ncc2[nH]c(=O)n(Cc3ccc(-c4nc(C(F)(F)F)cn4C)cc3)c2n1 [Compound I-327, 2-(2-((2-methoxyethyl)(methyl)amino)pyridin-3-yl)-9-(4-(1-methyl-4-(trifluoromethyl)-1H-imidazol-2-yl)benzyl)-7,9-dihydro-8H-purin-8-one] | 50 to 200
